Results as given in paper PMC5854716, “Synthesis, molecular docking, ctDNA interaction, DFT calculation and evaluation of antiproliferative and anti-Toxoplasma gondii activities of 2,4-diaminotriazine-thiazole derivatives” (Medicinal Chemistry Research, 2018).
Converted amounts (≈) assume the structure as drawn.

Legend:
[1] = test system: VERO cells; assay: Cell viability assay (MTT), VERO; format: cell-based, Cercopithecus aethiops; settings: 24 h; for CC30 VERO: concentration for 30% proliferation inhibition
Procedure: (§1) The epithelial cell line VERO (ATCC-Catalog No. CCL-81^TM), derived from the kidney of the African green monkey, Cercopithecus aethiops and fibroblast cell line L-929 (ATCC-Catalog No. CCL-1^TM), derived from Mus musculus (http://www.atcc.org) were grown in Iscoves’s Modified Dulbecco’s Medium (IMDM) supplemented with 10% (v/v) fetal bovine serum (FBS), plus 2 mM L-glutamine, 100 U/ml penicillin, 100.00 µg/ml streptomycin, 5 × 10^−5 M 2-mercaptoethanol and maintained at 37 °C in a 10% CO2 atmosphere. Subcultures were performed via enzymatic cell dissociation in 0.25% trypsin. After dissociation, the cells were placed in culture medium at 4 °C with 10% FBS to inhibit the action of trypsin. The isolated cells were centrifuged for 10 min at 1000×g at 4 °C, and the cells were grown in new bottles. This procedure was repeated when cells reached a confluence of ~90%. All commercial reactants and solvents were purchased from either Sigma-Aldrich Laborchemikalien GmbH (Dzitko et al. [2014]).
(§2) Suspensions of the compounds 4a–l were freshly prepared (5 mg/ml DMSO) before the cells were exposed, and diluted to appropriate concentrations; 0.9, 1.8, 3.9, 7.8, 15.6, 31.2, 62.5, and 125.00 μg/ml with the culture medium. Cells treated with 2.5% DMSO-solvent served as a control in each experiment.
(§3) The effects of tested compounds on the viability of mouse fibroblasts L929 and […] VERO cells were evaluated using the MTT assay. The MTT assay was used according to international standards: ISO 10993-5:2009 (Tests for in vitro cytotoxicity; http://www.iso.org/iso/catalogue_detail.htm? csnumber = 36406). L929 and VERO cells were plated into 96-well plates at a density of 1.0 × 10^4/100 μl/well in culture medium and allowed to attach for 24 h before treatment. Afterwards, culture medium in the plates was replaced by 100 μl compounds suspension at concentration of 0–125 μg/ml and the cells were exposed for 24 h. Then 1 mg/ml MTT (50 μl/well) was added to each well and incubated at 37 °C, 10 % CO2 for 2 h. Mitochondrial dehydrogenases of viable cells reduce the yellowish water-soluble MTT to water-insoluble formazan crystals, which were solubilized with dimethyl sulfoxide (DMSO). The cell culture medium was aspirated cautiously, after which 150 μl DMSO was added to each well and mixed thoroughly. Optical density (OD) was read on the ELISA reader (Multiskan EX, Labsystems; http://www.mtxlsi.com/multiskan_EX.htm) at 550 nm. The results were expressed as percentage viability compared with the treated 2.5% DMSO controls. All experiments were performed in triplicate.

[2] = test system: mouse L929 fibroblast; assay: Cell viability assay (MTT), L929; format: cell-based; settings: 24 h; for CC30 L929: concentration for 30% proliferation inhibition
Procedure: as §1, §2, §3

[3] = test system: Toxoplasma gondii BK strain; assay: T. gondii tachyzoite intracellular proliferation in VERO host cells ([3H]uracil incorporation); format: cell-based; settings: VERO host cells; for activity at 0.9 µg/mL / activity at 1.8 µg/mL / activity at 3.9 µg/mL / activity at 7.8 µg/mL / activity at 15.6 µg/mL / activity at 31.2 µg/mL / activity at 62.5 µg/mL / activity at 125 µg/mL / IC50: Toxoplasma gondii; for IC50 / IC50 (50% inhibition of T. gondii proliferation in vitro): GraphPad Prism curves; for IC50: read-out: IC50 (50% inhibition of T. gondii proliferation in vitro)
Procedure: as §1, §2
Stock solutions of the Sulfadiazine (100 mg/ml 1 N NaOH; Catalog No. S8626) was freshly prepared before each experiment, and diluted to appropriate concentrations: 5.00, 25.00, 50.00, 125.00, 250.00, 500.00, 1250.00, and 2500.00 μg/ml, respectively in IMDM complete medium. All commercial reactants and solvents were purchased from either Sigma-Aldrich Laborchemikalien GmbH.
Tachyzoites of T. gondii, BK strain, were maintained in female C57BL/6 (H-2^b) and BALB/c (H-2^d) mice (with genetically determined high and low susceptibility, respectively to Toxoplasma infection) via serial intraperitoneal inoculation of 10^5–10^6 parasites per mouse in phosphate-buffered saline (PBS). After 48 to 96 h, parasites were harvested via peritoneal lavage using PBS, pH 7.2, and centrifuged at 200×g for 5 min to remove blood cells and cell debris. The supernatant containing tachyzoites was collected and centrifuged again at 2000×g for 15 min. The final pellet was resuspended in IMDM, quantified in a Burker’s chamber, and used in experimental assays. Inbred mice were kept under standard laboratory conventional conditions. All experimental procedures were conducted according to guidelines of the 9. Local Ethics Commission for Experiments on Animals in Lodz.
VERO, (2 × 10^4 cells/100 µl/well) were grown in complete medium (IMDM) on 96-well plates. After 24 h incubation, a medium was removed and then T. gondii […] tachyzoites, suspended in culture medium supplemented with 0.9–125.00 μg/ml diaminotriazines 4a–l and as a control-sulfadiazine (5.0–2500.0 μg/ml), were added (2 × 10^5 tachyzoites/200 µl/well) to the cell monolayers. After subsequent 48 h incubation 1 µCi/well of [^3H] uracil (Moravek Biochemicals Inc., Brea, CA, USA) was applied to each microculture for further 18–20 h. The amount of the isotope incorporated into the parasite nucleic acid pool, corresponding to the parasite growth, was measured by liquid scintillation counting with 1450 Microbeta Plus Liquid Scintillation Counter (Wallac Oy, Turku, Finland). The cpms of host cells alone (below 250/microculture) were subtracted from cpms of T. gondii infected microcultures (Dzitko et al. [2014]).

Compound | CC30 VERO [1] [µg/mL] | CC30 L929 [2] [µg/mL] | activity at 0.9 µg/mL ([3]; 0.9 µg/ml) [%] | activity at 1.8 µg/mL ([3]; 1.8 µg/ml) [%] | activity at 3.9 µg/mL ([3]; 3.9 µg/ml) [%] | activity at 7.8 µg/mL ([3]; 7.8 µg/ml) [%] | activity at 15.6 µg/mL ([3]; 15.6 µg/ml) [%] | activity at 31.2 µg/mL ([3]; 31.2 µg/ml) [%] | activity at 62.5 µg/mL ([3]; 62.5 µg/ml) [%] | activity at 125 µg/mL ([3]; 125.0 µg/ml) [%] | IC50 [3] [µg/mL] | Viability VERO ([1]; 0.9 µg/ml) [%] | Viability VERO ([1]; 1.8 µg/ml) [%] | Viability VERO ([1]; 3.9 µg/ml) [%] | Viability VERO ([1]; 7.8 µg/ml) [%] | Viability VERO ([1]; 15.6 µg/ml) [%] | Viability VERO ([1]; 31.2 µg/ml) [%] | Viability VERO ([1]; 62.5 µg/ml) [%] | Viability VERO ([1]; 125.0 µg/ml) [%] | Viability L929 ([2]; 0.9 µg/ml) [%] | other results
C/C(=N\Nc1nc(-c2ccc(Br)cc2)cs1)c1ccc(Nc2nc(N)nc(N)n2)cc1 [Compound 4d, (E)-N^2-(4-(1-(2-(4-(4-bromophenyl)-1,3-thiazol-2-yl)hydrazinylidene)ethyl)phenyl)-1,3,5-triazine-2,4,6-triamine] | >125.0 | >125.0 | 102 | 104 | 102 | 106 | 75.2 | 62.8 | 29.3 | 15.1 | 37.8 (≈ 76.2 µM) | – | – | – | – | – | – | – | – | – | –
C/C(=N\Nc1nc(-c2ccc(I)cc2)cs1)c1ccc(Nc2nc(N)nc(N)n2)cc1 [Compound 4e, (E)-N^2-(4-(1-(2-(4-(4-iodophenyl)-1,3-thiazol-2-yl)hydrazinylidene)ethyl)phenyl)-1,3,5-triazine-2,4,6-triamine] | >125.0 | >125.0 | 103 | 104 | 99.9 | 92.8 | 80.7 | 75.1 | 48.7 | 14.6 | 49.2 (≈ 90.5 µM) | – | – | – | – | – | – | – | – | – | –
C/C(=N\Nc1nc(-c2cc3ccccc3oc2=O)cs1)c1ccc(Nc2nc(N)nc(N)n2)cc1 [Compound 4f, (E)-3-(2-(2-(1-(4-(4,6-diamino-1,3,5-triazin-2-yloamino)phenyl)ethylidene)hydrazinyl)thiazol-4-yl)-2H-chromen-2-on] | >125.0 | >125.0 | – | – | – | – | – | – | – | – | – | 97.81 | 100.84 | 104.30 | 104.39 | 108.19 | 117.52 | 103.77 | 111.27 | 98.99 | Viability L929 ([2]; 1.8 µg/ml): 102.21%; Viability L929 ([2]; 3.9 µg/ml): 101.95%; Viability L929 ([2]; 7.8 µg/ml): 96.25%; Viability L929 ([2]; 15.6 µg/ml): 100.89%; Viability L929 ([2]; 31.2 µg/ml): 104.60%; Viability L929 ([2]; 62.5 µg/ml): 109.54%; Viability L929 ([2]; 125.0 µg/ml): 108.66%; T. gondii intracellular proliferation ([3]; 0.9 µg/ml): 101.02%; T. gondii intracellular proliferation ([3]; 1.8 µg/ml): 98.89%; T. gondii intracellular proliferation ([3]; 3.9 µg/ml): 75.89%; T. gondii intracellular proliferation ([3]; 7.8 µg/ml): 64.30%; T. gondii intracellular proliferation ([3]; 15.6 µg/ml): 55.65%; T. gondii intracellular proliferation ([3]; 31.2 µg/ml): 50.52%; T. gondii intracellular proliferation ([3]; 62.5 µg/ml): 37.17%; T. gondii intracellular proliferation ([3]; 125.0 µg/ml): 14.03%; IC50 (50% inhibition of T. gondii proliferation in vitro) [3]: 21.53 µg/mL
CC(=O)Nc1ccc(-c2csc(N/N=C(\C)c3ccc(Nc4nc(N)nc(N)n4)cc3)n2)cc1 [Compound 4g, (E)-N^2-(4-(2-(2-(1-(4-(4,6-diamino-1,3,5-triazin-2-yloamino)phenyl)ethylidene)hydraziny)thiazol-4-yl)phenyl)-acetamide] | >125.0 | >125.0 | – | – | – | – | – | – | – | – | – | 93.72 | 90.59 | 95.35 | 98.14 | 98.43 | 98.96 | 94.25 | 91.41 | 102.34 | Viability L929 ([2]; 1.8 µg/ml): 102.12%; Viability L929 ([2]; 3.9 µg/ml): 100.36%; Viability L929 ([2]; 7.8 µg/ml): 98.86%; Viability L929 ([2]; 15.6 µg/ml): 94.31%; Viability L929 ([2]; 31.2 µg/ml): 99.83%; Viability L929 ([2]; 62.5 µg/ml): 103.01%; Viability L929 ([2]; 125.0 µg/ml): 105.39%; T. gondii intracellular proliferation ([3]; 0.9 µg/ml): 100.01%; T. gondii intracellular proliferation ([3]; 1.8 µg/ml): 100.69%; T. gondii intracellular proliferation ([3]; 3.9 µg/ml): 69.35%; T. gondii intracellular proliferation ([3]; 7.8 µg/ml): 66.62%; T. gondii intracellular proliferation ([3]; 15.6 µg/ml): 46.71%; T. gondii intracellular proliferation ([3]; 31.2 µg/ml): 42.95%; T. gondii intracellular proliferation ([3]; 62.5 µg/ml): 41.74%; T. gondii intracellular proliferation ([3]; 125.0 µg/ml): 19.11%; IC50 (50% inhibition of T. gondii proliferation in vitro) [3]: 18.70 µg/mL
